Test results taken from article PMC7534383, “Structure-activity relationship of 7-aryl-2-anilino-pyrrolopyrimidines as Mer and Axl tyrosine kinase inhibitors” (Journal of Enzyme Inhibition and Medicinal Chemistry, 2020).
“Also recorded” adds a separate entry of the source. Like-named read-outs stand apart in the source and are kept apart here.

Assays:
[1] = test system: Mer; conditions: Figure 1, known TAM kinase inhibitors; cited from earlier work
[2] = target: T1, TYRO3 (Homo sapiens, UniProt Q06418); conditions: Figure 1, known TAM kinase inhibitors; cited from earlier work
T1 sequence (Q06418 41-890): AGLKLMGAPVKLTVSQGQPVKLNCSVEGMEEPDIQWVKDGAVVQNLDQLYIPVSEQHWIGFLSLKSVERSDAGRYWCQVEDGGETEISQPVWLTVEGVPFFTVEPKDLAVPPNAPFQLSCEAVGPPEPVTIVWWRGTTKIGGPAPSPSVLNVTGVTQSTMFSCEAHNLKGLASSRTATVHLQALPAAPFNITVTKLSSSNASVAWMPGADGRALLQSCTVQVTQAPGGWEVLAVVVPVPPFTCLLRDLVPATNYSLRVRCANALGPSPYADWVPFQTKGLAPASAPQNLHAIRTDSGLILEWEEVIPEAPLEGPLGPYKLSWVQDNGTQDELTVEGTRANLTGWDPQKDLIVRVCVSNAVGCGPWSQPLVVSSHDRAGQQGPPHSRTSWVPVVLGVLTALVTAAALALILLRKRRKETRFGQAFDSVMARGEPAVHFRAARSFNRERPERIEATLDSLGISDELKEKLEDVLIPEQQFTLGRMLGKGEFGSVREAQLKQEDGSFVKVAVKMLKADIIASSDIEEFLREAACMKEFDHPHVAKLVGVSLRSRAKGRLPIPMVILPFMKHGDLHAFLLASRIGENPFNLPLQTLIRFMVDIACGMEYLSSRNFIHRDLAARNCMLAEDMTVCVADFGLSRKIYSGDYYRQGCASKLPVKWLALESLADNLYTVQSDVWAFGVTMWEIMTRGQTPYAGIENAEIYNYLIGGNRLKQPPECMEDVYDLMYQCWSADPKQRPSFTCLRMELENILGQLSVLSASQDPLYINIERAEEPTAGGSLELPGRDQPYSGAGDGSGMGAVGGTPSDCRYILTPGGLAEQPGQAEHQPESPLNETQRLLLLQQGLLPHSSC

[3] = target: T2, MERTK (Homo sapiens, UniProt Q12866); assay: Kinase assay at Km ATP (Eurofins Discovery), Mer; assay type: biochemical; conditions: Km ATP, read-out: IC50 (nM) MER
T2 sequence (Q12866 21-999): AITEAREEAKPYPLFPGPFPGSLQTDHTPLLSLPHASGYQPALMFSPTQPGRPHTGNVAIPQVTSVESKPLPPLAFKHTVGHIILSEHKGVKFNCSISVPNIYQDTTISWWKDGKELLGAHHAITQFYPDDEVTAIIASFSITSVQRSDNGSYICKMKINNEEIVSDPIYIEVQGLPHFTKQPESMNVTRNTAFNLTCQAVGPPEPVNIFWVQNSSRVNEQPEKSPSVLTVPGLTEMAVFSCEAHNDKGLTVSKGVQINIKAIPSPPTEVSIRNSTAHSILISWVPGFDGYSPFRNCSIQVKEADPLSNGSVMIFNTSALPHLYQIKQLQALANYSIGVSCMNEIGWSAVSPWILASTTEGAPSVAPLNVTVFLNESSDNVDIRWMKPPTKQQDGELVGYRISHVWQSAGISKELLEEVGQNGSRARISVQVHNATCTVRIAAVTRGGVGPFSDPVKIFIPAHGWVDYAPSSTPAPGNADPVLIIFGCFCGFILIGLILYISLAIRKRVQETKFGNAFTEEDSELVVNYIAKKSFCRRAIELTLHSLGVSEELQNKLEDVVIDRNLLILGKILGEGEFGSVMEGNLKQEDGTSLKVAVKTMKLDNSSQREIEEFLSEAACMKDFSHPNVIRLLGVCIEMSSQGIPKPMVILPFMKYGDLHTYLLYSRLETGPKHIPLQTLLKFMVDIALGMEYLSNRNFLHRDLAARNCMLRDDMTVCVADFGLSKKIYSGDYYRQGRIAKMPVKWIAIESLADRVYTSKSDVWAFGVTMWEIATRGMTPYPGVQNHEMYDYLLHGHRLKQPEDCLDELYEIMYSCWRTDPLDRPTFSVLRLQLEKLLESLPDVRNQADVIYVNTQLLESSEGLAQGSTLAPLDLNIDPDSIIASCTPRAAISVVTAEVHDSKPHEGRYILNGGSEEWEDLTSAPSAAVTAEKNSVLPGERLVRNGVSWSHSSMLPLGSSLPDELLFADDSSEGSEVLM
Description: (§1) All kinase assays were carried out at Km ATP by Eurofins Discovery's Kinase Screening and Profiling services (France).

[4] = target: T3, AXL (Homo sapiens, UniProt P30530); assay: Kinase assay at Km ATP (Eurofins Discovery), Axl; assay type: biochemical; conditions: Km ATP
T3 sequence (P30530 26-894): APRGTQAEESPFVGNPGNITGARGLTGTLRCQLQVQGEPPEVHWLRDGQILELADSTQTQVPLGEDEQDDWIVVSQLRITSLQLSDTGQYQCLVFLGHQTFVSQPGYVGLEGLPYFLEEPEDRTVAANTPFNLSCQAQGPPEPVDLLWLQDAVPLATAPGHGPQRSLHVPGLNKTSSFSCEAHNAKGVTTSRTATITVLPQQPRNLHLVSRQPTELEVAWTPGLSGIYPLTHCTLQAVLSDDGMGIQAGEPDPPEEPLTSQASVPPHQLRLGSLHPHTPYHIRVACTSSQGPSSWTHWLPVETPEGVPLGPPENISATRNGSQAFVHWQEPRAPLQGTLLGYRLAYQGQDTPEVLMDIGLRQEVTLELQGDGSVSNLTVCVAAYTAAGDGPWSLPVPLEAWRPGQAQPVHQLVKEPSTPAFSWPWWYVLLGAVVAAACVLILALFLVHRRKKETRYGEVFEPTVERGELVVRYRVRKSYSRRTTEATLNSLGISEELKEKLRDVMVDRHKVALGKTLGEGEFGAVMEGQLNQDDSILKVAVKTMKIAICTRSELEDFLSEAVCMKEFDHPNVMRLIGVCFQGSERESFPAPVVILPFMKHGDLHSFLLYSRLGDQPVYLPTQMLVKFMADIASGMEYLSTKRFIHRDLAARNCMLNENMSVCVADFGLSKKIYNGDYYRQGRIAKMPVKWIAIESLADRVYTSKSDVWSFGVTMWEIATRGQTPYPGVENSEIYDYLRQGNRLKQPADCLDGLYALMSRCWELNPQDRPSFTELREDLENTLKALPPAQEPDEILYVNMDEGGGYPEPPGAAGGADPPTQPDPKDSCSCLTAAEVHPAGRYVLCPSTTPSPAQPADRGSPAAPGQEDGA
Description: as §1

[5] = target: T1, TYRO3; assay: Kinase assay at Km ATP (Eurofins Discovery), Tyro3; assay type: biochemical
Description: as §1

[6] = test system: Mer phosphorylation in Mer-overexpressed human gastric cancer cell line MKN28; assay: Western blot of Mer phosphorylation in MKN28 cells; assay type: cell-based; conditions: 0.5 and 0.1 μM, 1.5 h, UNC2025 positive control
Description: MKN28 cells were obtained from the Korea Institute of Science and Technology (KIST). Cells were cultured in Roswell Park Memorial Institute (RPMI) 1640 medium containing 10% fetal bovine serum and 1% penicillin/streptomycin at 37 °C with 5% CO2 under a humidified atmosphere.
MKN 28 cells (500,000 cells/2 ml) were seeded in each well of 6-well plates and incubated for 24 h. Then, the cells were treated with 20 µL of DMSO stock solution of the corresponding compounds and incubated for a further 1.5 h. After that, the cells were washed with cold Dulbecco's Phosphate-Buffered Saline (DPBS) twice and lysed with RIPA buffer supplemented with protease inhibitor and phosphatase inhibitor cocktails on ice. Equal amounts of protein samples were boiled with 5× SDS-PAGE loading buffer and separated by 10% SDS-PAGE gels, then transferred onto polyvinylidene difluoride (PVDF) membranes. The membranes were blocked with 5% BSA in 1× TBST (1× TBS with 0.1% Tween-20) for 1 h and incubated at 4 °C overnight with a 1:1000 dilution of the following primary antibodies in blocking buffer: pMer (Tyr749 + 753 + 754, ab14921), Mer (CST, # 4319), and ß-actin (SC, # SC-47778). […]
Figure 3. […] Bar graph represents the relative intensities of the total and phosphorylated Mer as determined by band densitometry using image analysis software.

| SMILES | IC50 ([3]; Table 2) [nM] | IC50 ([4]; Table 2) [nM] | inhibition at 1 µM [5] [%] | IC50 ([3]; Table 3) [nM] | IC50 ([4]; Table 3) [nM] | further results |
| --- | --- | --- | --- | --- | --- | --- |
| CCOc1ccn(-c2ccc(F)cc2)c(=O)c1C(=O)Nc1ccc(Oc2ccnc(N)c2Cl)c(F)c1 [BMS-777607] | – | – | – | – | – | IC50 [1]: 14 nM; IC50 [2]: 4 nM |
| COc1ccc(-n2ccc3cnc(Nc4cc(OC)cc(N5CCC6(CCCC6)CC5)c4)nc32)cc1 [Compound 31, N-(3-Methoxy-5–(8-azaspiro[4.5]decan-8-yl)phenyl)-7–(4-methoxyphenyl)-7H-pyrrolo[2,3-d]pyrimidin-2-amine] | > 3000 | > 3000 | 4 | – | – | – |
| COc1cc(Nc2ncc3ccn([C@H]4CC[C@H](O)CC4)c3n2)cc(N2CCC(N3CCCC3)CC2)c1 [Compound 36, (1r,4r)-4–(2-((3-Methoxy-5–(4-(pyrrolidin-1-yl)piperidin-1-yl)phenyl)amino)-7H-pyrrolo[2,3-d]pyrimidin-7-yl)cyclohexanol] | – | – | – | 484 | 2020 | %Inhibition at 1 µM TYRO3 ([5]; Table 3, 1 µM, Km ATP): 55% |

Continued, in another order:

| IC50 ([3]; Table 2) [nM] | IC50 ([4]; Table 2) [nM] | inhibition at 1 µM [5] [%] | IC50 ([3]; Table 3) [nM] | IC50 ([4]; Table 3) [nM] | SMILES | further results |
| --- | --- | --- | --- | --- | --- | --- |
| 2 | 16 | 40 | – | – | COc1ccc(-n2ccc3cnc(Nc4cc(OC)cc(N5CCC(N6CCCC6)CC5)c4)nc32)cc1 [Compound 27, N-(3-Methoxy-5–(4-(pyrrolidin-1-yl)piperidin-1-yl)phenyl)-7–(4-methoxyphenyl)-7H-pyrrolo[2,3-d]pyrimidin-2-amine] | Inhibitory effect on Mer phosphorylation [6]: better effect on blocking phosphorylation than UNC2025; also recorded: considerable inhibition for Mer phosphorylation in cells |
| 36 | 212 | 39 | – | – | COc1ccc(-n2ccc3cnc(Nc4cc(OC)cc(N5CCN(C6COC6)CC5)c4)nc32)cc1 [Compound 30, N-(3-Methoxy-5–(4-(oxetan-3-yl)piperazin-1-yl)phenyl)-7–(4-methoxyphenyl)-7H-pyrrolo[2,3-d]pyrimidin-2-amine] | – |
| – | – | 23 | 9 | 57 | COc1cc(Nc2ncc3ccn(-c4ccc(OC(F)(F)F)cc4)c3n2)cc(N2CCC(N3CCCC3)CC2)c1 [Compound 33, N-(3-Methoxy-5–(4-(pyrrolidin-1-yl)piperidin-1-yl)phenyl)-7–(4-(trifluoromethoxy)phenyl)-7H-pyrrolo[2,3-d]pyrimidin-2-amine] | – |
| – | – | 35 | 17 | 48 | COc1cc(Nc2ncc3ccn(-c4ccccc4)c3n2)cc(N2CCC(N3CCCC3)CC2)c1 [Compound 34, N-(3-Methoxy-5–(4-(pyrrolidin-1-yl)piperidin-1-yl)phenyl)-7-phenyl-7H-pyrrolo[2,3-d]pyrimidin-2-amine] | – |
| – | – | 16 | 64 | 247 | COc1cc(Nc2ncc3ccn(-c4nccs4)c3n2)cc(N2CCC(N3CCCC3)CC2)c1 [Compound 35, N-(3-Methoxy-5–(4-(pyrrolidin-1-yl)piperidin-1-yl)phenyl)-7-(thiazol-2-yl)-7H-pyrrolo[2,3-d]pyrimidin-2-amine] | – |
